How the values were obtained:
Assay in all cases: Cell proliferation assay (ATPlite), drug with vs without cobicistat
Type in all cases: cell-based
769-P = 769-P cell line; 120 hours incubation
Summary of the method: (§1)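 Following 24 h of growth after seeding at 200–3200 cells/well, cultures received test compound in duplicate over a 9-point dilution series (3.16×10^−5–3.16×10^−9 M; 0.4% DMSO). They were incubated a further 120 h before luminescent ATP detection.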

A-172 = A-172 cell line; 120 hours incubation
Summary of the method: as §1

A-204 = A-204 cell line; 120 hours incubation
Summary of the method: as §1

A-427 = A-427 cell line; 120 hours incubation
Summary of the method: as §1

A-704 = A-704 cell line; 120 hours incubation
Summary of the method: as §1

A388 = A388 cell line; 120 hours incubation
Summary of the method: as §1

ACHN = ACHN cell line; 120 hours incubation
Summary of the method: as §1

AsPC-1 = AsPC-1 cell line; 120 hours incubation
Summary of the method: as §1

BT-20 = BT-20 cell line; 120 hours incubation
Summary of the method: as §1

BT-549 = BT-549 cell line; 120 hours incubation
Summary of the method: as §1

BxPC-3 = BxPC-3 cell line; 120 hours incubation
Summary of the method: as §1

CAL 27 = CAL 27 cell line; 120 hours incubation
Summary of the method: as §1

DLD-1 = DLD-1 cell line; 120 hours incubation
Summary of the method: as §1

DU 145 = DU 145 cell line; 120 hours incubation
Summary of the method: as §1

FaDu = FaDu cell line; 120 hours incubation
Summary of the method: as §1

K-562 = K-562 cell line; 120 hours incubation
Summary of the method: as §1

KU812 = KU812 cell line; 120 hours incubation
Summary of the method: as §1

LNCaP FGC = LNCaP FGC cell line; 120 hours incubation
Summary of the method: as §1

MCF7 = MCF7 cell line; 120 hours incubation
Summary of the method: as §1

MOLT-4 = MOLT-4 cell line; 120 hours incubation
Summary of the method: as §1

SK-N-FI = SK-N-FI cell line; 120 hours incubation
Summary of the method: as §1

SNU-C2B = SNU-C2B cell line; 120 hours incubation
Summary of the method: as §1

SUP-T1 = SUP-T1 cell line; 120 hours incubation
Summary of the method: as §1

SW480 = SW480 cell line; 120 hours incubation
Summary of the method: as §1

SW48 = SW48 cell line; 120 hours incubation
Summary of the method: as §1

SW620 = SW620 cell line; 120 hours incubation
Summary of the method: as §1

SW948 = SW948 cell line; 120 hours incubation
Summary of the method: as §1

T24 = T24 cell line; 120 hours incubation
Summary of the method: as §1

T98G = T98G cell line; 120 hours incubation
Summary of the method: as §1

VA-ES-BJ = VA-ES-BJ cell line; 120 hours incubation
Summary of the method: as §1

Row | Structure (SMILES) | Fold change in IC50 (IC50 [Drug + Cobicistat]/IC50 [Drug]) (769-P) | Fold change in IC50 (IC50 [Drug + Cobicistat]/IC50 [Drug]) (A-172) | Fold change in IC50 (IC50 [Drug + Cobicistat]/IC50 [Drug]) (A-204) | Fold change in IC50 (IC50 [Drug + Cobicistat]/IC50 [Drug]) (A-427) | Fold change in IC50 (IC50 [Drug + Cobicistat]/IC50 [Drug]) (A-704) | Fold change in IC50 (IC50 [Drug + Cobicistat]/IC50 [Drug]) (A388) | Fold change in IC50 (IC50 [Drug + Cobicistat]/IC50 [Drug]) (ACHN) | Fold change in IC50 (IC50 [Drug + Cobicistat]/IC50 [Drug]) (AsPC-1) | Fold change in IC50 (IC50 [Drug + Cobicistat]/IC50 [Drug]) (BT-20) | Fold change in IC50 (IC50 [Drug + Cobicistat]/IC50 [Drug]) (BT-549) | Fold change in IC50 (IC50 [Drug + Cobicistat]/IC50 [Drug]) (BxPC-3) | Fold change in IC50 (IC50 [Drug + Cobicistat]/IC50 [Drug]) (CAL 27) | Fold change in IC50 (IC50 [Drug + Cobicistat]/IC50 [Drug]) (DLD-1) | Fold change in IC50 (IC50 [Drug + Cobicistat]/IC50 [Drug]) (DU 145) | Fold change in IC50 (IC50 [Drug + Cobicistat]/IC50 [Drug]) (FaDu) | Fold change in IC50 (IC50 [Drug + Cobicistat]/IC50 [Drug]) (K-562) | Fold change in IC50 (IC50 [Drug + Cobicistat]/IC50 [Drug]) (KU812) | Fold change in IC50 (IC50 [Drug + Cobicistat]/IC50 [Drug]) (LNCaP FGC) | Fold change in IC50 (IC50 [Drug + Cobicistat]/IC50 [Drug]) (MCF7) | Fold change in IC50 (IC50 [Drug + Cobicistat]/IC50 [Drug]) (MOLT-4) | also measured
1 | CC[C@]1(O)C[C@@H]2CN(CCc3c([nH]c4ccccc34)[C@@](C(=O)OC)(c3cc4c(cc3OC)N(C)[C@H]3[C@@](O)(C(=O)OC)[C@H](OC(C)=O)[C@]5(CC)C=CCN6CC[C@]43[C@@H]65)C2)C1 [vinblastine] | 2.5 fold | 3.0 fold | 4.0 fold | 2.7 fold | 3.8 fold | 4.7 fold | 3.8 fold | 5.6 fold | 2.7 fold | 3.3 fold | 2.4 fold | 2.8 fold | 2.2 fold | 5.4 fold | 2.2 fold | 2.6 fold | 4.4 fold | 4.0 fold | 5.3 fold | 2.8 fold | Fold change in IC50 (IC50 [Drug + Cobicistat]/IC50 [Drug]) (SK-N-FI): 4.5 fold; Fold change in IC50 (IC50 [Drug + Cobicistat]/IC50 [Drug]) (SNU-C2B): 4.5 fold; Fold change in IC50 (IC50 [Drug + Cobicistat]/IC50 [Drug]) (SUP-T1): 3.0 fold; Fold change in IC50 (IC50 [Drug + Cobicistat]/IC50 [Drug]) (SW480): 3.3 fold; Fold change in IC50 (IC50 [Drug + Cobicistat]/IC50 [Drug]) (SW48): 2.5 fold; Fold change in IC50 (IC50 [Drug + Cobicistat]/IC50 [Drug]) (SW620): 2.7 fold; Fold change in IC50 (IC50 [Drug + Cobicistat]/IC50 [Drug]) (SW948): 4.2 fold; Fold change in IC50 (IC50 [Drug + Cobicistat]/IC50 [Drug]) (T24): 5.2 fold; Fold change in IC50 (IC50 [Drug + Cobicistat]/IC50 [Drug]) (T98G): 4.9 fold; Fold change in IC50 (IC50 [Drug + Cobicistat]/IC50 [Drug]) (VA-ES-BJ): 4.3 fold
2 | CC[C@]1(O)C[C@H]2CN(CCc3c([nH]c4ccccc34)[C@@](C(=O)OC)(c3cc4c(cc3OC)N(C=O)[C@H]3[C@@](O)(C(=O)OC)[C@H](OC(C)=O)[C@]5(CC)C=CCN6CC[C@]43[C@@H]65)C2)C1 [vincristine] | 3.5 fold | 3.3 fold | 4.4 fold | 1.9 fold | 2.0 fold | 3.7 fold | 3.4 fold | 3.1 fold | 3.2 fold | 2.9 fold | 4.1 fold | 2.6 fold | 2.0 fold | 3.8 fold | 2.8 fold | 3.5 fold | 3.7 fold | 3.6 fold | 4.8 fold | 2.1 fold | Fold change in IC50 (IC50 [Drug + Cobicistat]/IC50 [Drug]) (SK-N-FI): 2.7 fold; Fold change in IC50 (IC50 [Drug + Cobicistat]/IC50 [Drug]) (SNU-C2B): 2.4 fold; Fold change in IC50 (IC50 [Drug + Cobicistat]/IC50 [Drug]) (SUP-T1): 3.6 fold; Fold change in IC50 (IC50 [Drug + Cobicistat]/IC50 [Drug]) (SW480): 3.3 fold; Fold change in IC50 (IC50 [Drug + Cobicistat]/IC50 [Drug]) (SW48): 2.7 fold; Fold change in IC50 (IC50 [Drug + Cobicistat]/IC50 [Drug]) (SW620): 3.0 fold; Fold change in IC50 (IC50 [Drug + Cobicistat]/IC50 [Drug]) (SW948): 3.5 fold; Fold change in IC50 (IC50 [Drug + Cobicistat]/IC50 [Drug]) (T24): 4.4 fold; Fold change in IC50 (IC50 [Drug + Cobicistat]/IC50 [Drug]) (T98G): 4.1 fold; Fold change in IC50 (IC50 [Drug + Cobicistat]/IC50 [Drug]) (VA-ES-BJ): 5.4 fold

— patent publication US20180036289A1 (Gilead Sciences, Inc., priority 2016, published 2018)
